From patent publication US6432974B1, “Pyrrolo-isoquinoline and tetra-hydropyrrolo-isoquinoline derivatives and their use as mediators of the 5-HT7 receptor” (Wyeth, priority 2000, dated 2002)
Where a name gives a salt, the structure may show the parent alone. Read-outs that look alike come from different tables or passages of the source.

Assays:
[1] = target: T1, human 5HT7 receptor (Homo sapiens, UniProt P34969); assay: 5-HT7 Receptor Binding Assay ([3H]LSD displacement, CHO cell membranes)
T1 construct: purchased BioSignal Drug Discovery Technology, Montreal, Canada; host or cells: CHO cells (stably transfected), membranes
T1 sequence (P34969 whole entry): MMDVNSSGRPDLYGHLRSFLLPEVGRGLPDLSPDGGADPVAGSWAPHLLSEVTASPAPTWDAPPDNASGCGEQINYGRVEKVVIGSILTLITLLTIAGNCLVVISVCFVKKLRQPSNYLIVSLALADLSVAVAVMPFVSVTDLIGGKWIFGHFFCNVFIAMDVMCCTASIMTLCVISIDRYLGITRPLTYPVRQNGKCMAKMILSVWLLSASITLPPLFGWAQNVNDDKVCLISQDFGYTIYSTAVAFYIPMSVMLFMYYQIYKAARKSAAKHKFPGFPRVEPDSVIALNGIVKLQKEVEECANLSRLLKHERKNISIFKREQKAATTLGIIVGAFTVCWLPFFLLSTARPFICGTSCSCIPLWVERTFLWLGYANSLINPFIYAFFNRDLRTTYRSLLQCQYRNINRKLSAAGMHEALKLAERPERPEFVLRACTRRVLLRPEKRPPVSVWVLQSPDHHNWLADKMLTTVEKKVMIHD

Structure (SMILES): NCCc1c[nH]c2cc3c(cc12)C(=O)N(Cc1ccccc1)CC3 (as salt: HCl) (hydrate or solvate)
- melting point: 262 to 263 °C

Structure (SMILES): NCCc1c[nH]c2cc3c(cc12)C(=O)NCC3 (as salt: salt) (hydrate or solvate) [Compound 1, 3-(2-Amino-ethyl)-1,6,7,8-tetrahydro-pyrrolo[2,3-g]isoquinolin-5-one]
- melting point: 82 to 86 °C

Structure (SMILES): NCCc1c[nH]c2cc3c(cc12)C(=O)NCC3 [Compound 1, 3-(2-Amino-ethyl)-1,6,7,8-tetrahydro-pyrrolo[2,3-g]isoquinolin-5-one]
- Ki [1]: 14 nM

Structure (SMILES): CN1CCN(C2=Nc3ccccc3Oc3ccc(Cl)cc32)CC1 [Loxapine, reference compound]
- Ki ([1]; displacement of [3H]LSD, cloned human 5-HT7 receptor membranes from CHO cells, value with 95% confidence interval, read-out: 5-HT7 binding Ki): 43 nM
